Assays:
[1] = test system: Human breast cancer cell line T-47D; assay: Caspase cascade activation assay (N-(Ac-DEVD)-N'-ethoxycarbonyl-R110 fluorogenic substrate) in T-47D cells; format: cell-based; settings: for EC50 (nM) T47D / Max efficacy T47D: commercial fused-pyridine compounds, T47D cells; for EC50: Homo sapiens, T47D; for EC50 / EC50 (nM) T-47D: caspase cascade activation potency; for EC50 / Caspase activity (Ratio) T-47D / EC50 (nM) T-47D: T-47D cells, 24 h incubation; for Caspase activity (Ratio) T-47D: ratio of net RFU of test compound to control, 3 h substrate reading
Protocol: (§1) Human breast cancer cell lines T-47D and ZR-75-1 were grown according to media component mixtures designated by American Type Culture Collection +10% FCS (Invitrogen Corporation), in a 5% CO2 −95% humidity incubator at 37° C. T-47D and ZR-75-1 cells were maintained at a cell density between 30 and 80% confluency at a cell density of 0.1 to 0.6×10^6 cells/mL. Cells were harvested at 600×g and resuspended at 0.65×10^6 cells/mL into appropriate media +10% FCS. An aliquot of 45 μl of cells was added to a well of a 96-well microtiter plate containing 5 μl of a 10% DMSO in RPMI-1640 media solution containing 0.16 to 10 μM of 3-cyano-7-methoxy-4-(3-bromo-4,5-dimethoxyphenyl)-2-oxo-2H-chromene (Example 1) or other test compound (0.016 to 1 μM final). An aliquot of 45 μl of cells was added to a well of a 96-well microtiter plate containing 5 μl of a 10% DMSO in RPMI-1640 media solution without test compound as the control sample. The samples were mixed by agitation and then incubated at 37° C. for 24 h in a 5% CO2 −95% humidity incubator. After incubation, the samples were removed from the incubator and 50 μl of a solution containing 20 μM of N-(Ac-DEVD)-N′-ethoxycarbonyl-R110 fluorogenic substrate (SEQ ID NO:1) (Cytovia, Inc.; WO99/18856), 20% sucrose (Sigma), 20 mM DTT (Sigma), 200 mM NaCl (Sigma), 40 mM Na PIPES buffer pH 7.2 (Sigma), and 500 μg/ml lysolecithin (Calbiochem) was added. The samples were mixed by agitation and incubated at room temperature. Using a fluorescent plate reader (Model 1420 Wallac Instruments), an initial reading (T=0) was made approximately 1-2 min after addition of the substrate solution, employing excitation at 485 nm and emission at 530 nm, to determine the background fluorescence of the control sample. After the 3 h incubation, the samples were read for fluorescence as above (T=3 h).
(§2) The Relative Fluorescence Unit values (RFU) were used to calculate the sample readings as follows: RFU(T=3 h)−Control RFU(T=0)=Net RFU(T=3 h)
(§3) The activity of caspase cascade activation was determined by the ratio of the net RFU value for 3-cyano-7-methoxy-4-(3-bromo-4,5-dimethoxy-phenyl)-2-oxo-2H-chromene, or other test compound, to that of control samples. The EC50 (nM) was determined by a sigmoidal dose-response calculation (Prism 2.0, GraphPad Software Inc.).

[2] = test system: Human breast cancer cell line ZR-75-1; assay: Caspase cascade activation assay (N-(Ac-DEVD)-N'-ethoxycarbonyl-R110 fluorogenic substrate) in ZR-75-1 cells; format: cell-based; settings: for maximal fold induction / EC50: Homo sapiens; for maximal fold induction: ZR-75-1, 24 h, read-out: Max efficacy ZR751; for Caspase activity (Ratio) ZR-75-1: ratio of net RFU of test compound to control, 3 h substrate reading
Protocol: as §1, §2, §3

[3] = commercial fused-pyridine compounds, ZR751 cells
[4] = ZR-75-1, commercial fused-pyridine compounds, ZR751 cells
[5] = caspase cascade activation potency, ZR-75-1 cells, 24 h incubation

Compound | EC50 (nM) T47D [1] | Max efficacy T47D [1] | maximal fold induction [2, 3] | EC50 [2, 4] [nM] | EC50 [1] [nM] | Caspase activity (Ratio) T-47D [1] | EC50 [2, 5] [nM] | Caspase activity (Ratio) ZR-75-1 ([2]; ZR-75-1 cells, 24 h incubation) | EC50 (nM) T-47D [1] | EC50 (nM) ZR-75-1 [2, 5]
COc1ccc(-c2c(C#N)c(N)nc3c2CCCC3C)cc1 (stereo not drawn) [compound 49] | Inactive | Inactive | 4.8 | 5710 |  |  |  |  |  | 
COc1cc(-c2c(C#N)c(=O)oc3cc(N(C)C)ccc23)cc(Br)c1OC [Example 21, 3-Cyano-7-dimethylamino-4-(3-bromo-4,5-dimethoxyphenyl)-2-oxo-2H-chromene] |  |  |  |  | 546 | 5.8 | 279 | 9.1 |  | 
COc1cc(OC)cc(-c2c(C#N)c(=O)oc3c2ccc2c3ccn2C)c1 [Example 39, 3-Cyano-4-(3,5-dimethoxy-phenyl)-7-methyl-2-oxo-2H-pyrrolo[2,3-h]chromene] |  |  |  |  | > 100 | 1.9 | 20 | 5.2 |  | 
COc1cc(OC)cc(-c2c(C#N)c(=O)oc3cc(OC)ccc23)c1 [Example 2, 3-Cyano-7-methoxy-4-(3,5-dimethoxyphenyl)-2-oxo-2H-chromene] |  |  |  |  | 44 | 4.1 | 11 | 5.4 |  | 
COc1cc(OC)cc(-c2c(C#N)c(=O)oc3cc(N)ccc23)c1 [Example 22, 7-Amino-3-cyano-4-(3,5-dimethoxyphenyl)-2-oxo-2H-chromene] |  |  |  |  |  | 1.5 | 400 | 3.4 | Inactive | 
COc1cc(-c2c(C#N)c(N)nc3c2CCc2ccccc2-3)cc(Br)c1OC [Example 19, 2-Amino-4-(3-bromo-4,5-dimethoxyphenyl)-3-cyano-5,6-dihydro-benzo[h]quinoline] |  |  |  |  | 4060 | 5.4 | 556 | 7.9 |  | 
N#Cc1c(N)nc2sc(C(N)=O)c(N)c2c1-c1ccc(Br)cc1 [compound 47] | Inactive | Inactive | 2.7 | 6110 |  |  |  |  |  | 
COc1cc(OC)cc(-c2c(C#N)c(=O)oc3cc(N(C)C)ccc23)c1 [Example 23, 3-Cyano-7-dimethylamino-4-(3,5-dimethoxyphenyl)-2-oxo-2H-chromene] |  |  |  |  | 456 | 2.3 | 429 | 7.2 |  | 
COc1cccc(-c2c(C#N)c(=O)oc3c2ccc2c3ccn2C)c1 [Example 41, 3-Cyano-4-(3-methoxy-phenyl)-7-methyl-2-oxo-2H-pyrrolo[2,3-h]chromene] |  |  |  |  | 55 | 2.3 | 22 | 4.9 |  | 
COc1cc(-c2c(C#N)c(=O)oc3cc(N)ccc23)cc(Br)c1OC [Example 18, 7-Amino-4-(3-bromo-4,5-dimethoxyphenyl)-3-cyano-2-oxo-2H-chromene] |  |  |  |  | 1490 | 2.2 | 320 | 7.1 |  | 
N#Cc1c(-c2ccccc2)c2ccccc2oc1=N [Example 3, 3-Cyano-2-imino-4-phenyl-2H-chromene] |  |  |  |  |  | Inactive |  | Inactive | Inactive | Inactive
COc1cc(-c2c(C#N)c(=N)oc3cc(N)ccc23)cc(Br)c1OC [Example 26, 7-Amino-4-(3-bromo-4,5-dimethoxy-phenyl)-3-cyano-2-imino-2H-chromene] |  |  |  |  |  | 1.9 | 2770 | 8.8 | Inactive | 

From US7235674B2, “Substituted coumarins and quinolines and analogs as activators of caspases and inducers of apoptosis and the use thereof” (Cytovia, Inc., priority 2001, dated 2007)
